We go through 17 compounds from patent US20070203133A1, “Substituted 5,12-diaza-benzoanthracene analogues” (Neurogen Corporation, priority 2004, published 2007).

The IC50 is the concentration at which inhibition is half-maximal. By Ki is commonly meant the equilibrium dissociation constant of an inhibitor or competing ligand from its target.

T1 sequence (Q8NER1 whole entry): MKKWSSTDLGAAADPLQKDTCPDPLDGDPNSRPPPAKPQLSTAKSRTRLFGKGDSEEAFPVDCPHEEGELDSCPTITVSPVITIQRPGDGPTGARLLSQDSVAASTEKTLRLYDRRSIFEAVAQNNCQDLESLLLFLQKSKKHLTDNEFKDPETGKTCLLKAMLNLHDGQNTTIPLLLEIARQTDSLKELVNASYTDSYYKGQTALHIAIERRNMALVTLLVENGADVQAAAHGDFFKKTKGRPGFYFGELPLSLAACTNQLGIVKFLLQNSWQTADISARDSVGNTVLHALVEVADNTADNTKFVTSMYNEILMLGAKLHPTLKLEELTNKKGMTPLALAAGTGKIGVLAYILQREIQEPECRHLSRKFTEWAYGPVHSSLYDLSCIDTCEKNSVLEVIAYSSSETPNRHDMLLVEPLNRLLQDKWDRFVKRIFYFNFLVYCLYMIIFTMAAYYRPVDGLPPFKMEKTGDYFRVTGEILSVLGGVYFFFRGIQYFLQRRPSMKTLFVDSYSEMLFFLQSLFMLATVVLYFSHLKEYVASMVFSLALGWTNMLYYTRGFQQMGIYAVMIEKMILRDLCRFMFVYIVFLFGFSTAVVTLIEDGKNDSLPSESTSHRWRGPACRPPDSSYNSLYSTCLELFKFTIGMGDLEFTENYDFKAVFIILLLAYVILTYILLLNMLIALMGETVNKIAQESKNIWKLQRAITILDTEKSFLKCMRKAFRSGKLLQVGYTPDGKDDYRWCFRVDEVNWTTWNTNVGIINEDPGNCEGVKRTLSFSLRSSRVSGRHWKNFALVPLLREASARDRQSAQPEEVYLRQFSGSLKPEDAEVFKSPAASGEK
VR, sequence (Q8NER1 whole entry): as above

One test addresses T1, human capsaicin receptor (Homo sapiens, UniProt Q8NER1).
T1 construct: transfected with the pBK-CMV expression construct encoding the full length human capsaicin receptor; expressed in transfected cells; host or cells: HEK293, stably transfected with the pBK-CMV construct
Nature of the test: Calcium mobilization assay, determination of antagonist activity. To be noted: 50% decrease in the fluorescence response of cells expressing human capsaicin receptor exposed to capsaicin. The format is cell-based. The protocol: A cDNA encoding full length human capsaicin receptor (SEQ ID NO:1, 2 or 3 of U.S. Pat. No. 6,482,611) is subcloned in the plasmid pBK-CMV (Stratagene, La Jolla, Calif.) for recombinant expression in mammalian cells.
Human embryonic kidney (HEK293) cells are transfected with the pBK-CMV expression construct encoding the full length human capsaicin receptor using standard methods. The transfected cells are selected for two weeks in media containing G418 (400 μg/ml) to obtain a pool of stably transfected cells. Independent clones are isolated from this pool by limiting dilution to obtain clonal stable cell lines for use in subsequent experiments.
Cells transfected with expression plasmids (as described in Example 4) and thereby expressing human capsaicin receptor are seeded and grown to 70-90% confluency in FALCON black-walled, clear-bottomed 96-well plates (#3904, BECTON-DICKINSON, Franklin Lakes, N.J.). The culture medium is emptied from the 96 well plates and FLUO-3 AM calcium sensitive dye (Molecular Probes, Eugene, Oreg.) is added to each well (dye solution: 1 mg FLUO-3 AM, 440 μL DMSO and 440 μl 20% pluronic acid in DMSO, diluted 1:250 in Krebs-Ringer HEPES (KRH) buffer (25 mM HEPES, 5 mM KCl, 0.96 mM NaH2PO4, 1 mM MgSO4, 2 mM CaCl2, 5 mM glucose, 1 mM probenecid, pH 7.4), 50 μL diluted solution per well). Plates are covered with aluminum foil and incubated at 37° C. for 1-2 hours in an environment containing 5% CO2. After the incubation, the dye is emptied from the plates, and the cells are washed once with KRH buffer, and resuspended in KRH buffer.
To measure the ability of a test compound to agonize or antagonize a calcium mobilization response in cells expressing capsaicin receptors to capsaicin or other vanilloid agonist, the EC50 of the agonist capsaicin is first determined. An additional 20 μl of KRH buffer and 1 μl DMSO is added to each well of cells, prepared as described above. 100 μl capsaicin in KRH buffer is automatically transferred by the FLIPR instrument to each well. Capsaicin-induced calcium mobilization is monitored using either FLUOROSKAN ASCENT (Labsystems; Franklin, Mass.) or FLIPR (fluorometric imaging plate reader system; Molecular Devices, Sunnyvale, Calif.) instruments. Data obtained between 30 and 60 seconds after agonist application are used to generate an 8-point concentration response curve, with final capsaicin concentrations of 1 nM to 3 μM. KALEIDAGRAPH software (Synergy Software, Reading, Pa.) is used to fit the data to the equation: y=a*(1/(1+(b/x)^c)) to determine the 50% excitatory concentration (EC50) for the response. In this equation, y is the maximum fluorescence signal, x is the concentration of the agonist or antagonist (in this case, capsaicin), a is the Emax, b corresponds to the EC50 value and c is the Hill coefficient. Determination of Agonist Activity
Test compounds are dissolved in DMSO, diluted in 20 μl KRH buffer so that the final concentration of test compounds in the assay well is between 1 μM and 5 μM, and added to cells prepared as described above. The 96 well plates containing prepared cells and test compounds are incubated in the dark, at room temperature for 0.5 to 6 hours. It is important that the incubation not continue beyond 6 hours. Just prior to determining the fluorescence response, 100 μl capsaicin in KRH buffer at twice the EC50 concentration determined as described above is automatically added by the FLIPR instrument to each well of the 96 well plate for a final sample volume of 200 μl and a final capsaicin concentration equal to the EC50. The final concentration of test compounds in the assay wells is between 1 μM and 5 μM. […] The concentration of antagonist required to provide a 50% decrease, relative to the response observed in the presence of capsaicin and without antagonist, is the IC50 for the antagonist, and is preferably below 1 micromolar, 100 nanomolar, 10 nanomolar or 1 nanomolar.
As to `COCc1nc2nc(-c3ncccc3C(F)(F)F)ccc2c2c1Oc1cc(C(F)(F)F)ccc1N2` [Compound 1, 6-Methoxymethyl-9-trifluoromethyl-3-(3-trifluoromethyl-pyridin-2-yl)-12H-7-oxa-4,5,12-triaza-benzo[a]anthracene], the IC50 is at most 1000 nM. Same read-out and setting: for `COCc1nc2nc(-c3ncccc3C(F)(F)F)ccc2c2c1Oc1ccc(Cl)cc1N2` [Compound 3, 10-Chloro-6-methoxymethyl-3-(3-trifluoromethyl-pyridin-2-yl)-12H-7-oxa-4,5,12-triaza-benzo[a]anthracene] the value was at most 1000 nM; for `COCc1nc2nc(-c3ncccc3C(F)(F)F)ccc2c2c1Oc1cc(S(C)(=O)=O)ccc1N2` [Compound 4, 9-Methanesulfonyl-6-methoxymethyl-3-(3-trifluoromethyl-pyridin-2-yl)-12H-7-oxa-4,5,12-triaza-benzo[a]anthracene], at most 1000 nM; for `COCc1nc2nc(-c3ncccc3C(F)(F)F)ccc2c2c1Oc1cc(C(C)(C)C)ccc1N2` [Compound 5, 9-tert-Butyl-6-methoxymethyl-3-(3-trifluoromethyl-pyridin-2-yl)-12H-7-oxa-4,5,12-triaza-benzo[a]anthracene], at most 1000 nM.

In the case of `FC(F)(F)c1ccc2c(c1)Oc1c(Cl)nc3nc(-c4ncccc4C(F)(F)F)ccc3c1N2` [Compound 6, 6-Chloro-9-trifluoromethyl-3-(3-trifluoromethyl-pyridin-2-yl)-12H-7-oxa-4,5,12-triaza-benzo[a]anthracene], the concentration for half-maximal inhibition (IC50) is at most 1000 nM.

Turning to `OCc1nc2nc(-c3ncccc3C(F)(F)F)ccc2c2c1Oc1cc(C(F)(F)F)ccc1N2` [Compound 7, [9-Trifluoromethyl-3-(3-trifluoromethyl-pyridin-2-yl)-12H-7-oxa-4,5,12-triaza-benzo[a]anthracen-6-yl]-methanol], the IC50 is at most 1000 nM.

On to `C[C@@H]1CN(Cc2nc3nc(-c4ncccc4C(F)(F)F)ccc3c3c2Oc2cc(C(F)(F)F)ccc2N3)C[C@H](C)O1` [Compound 8, 6-(2,6-Dimethyl-morpholin-4-ylmethyl)-9-trifluoromethyl-3-(3-trifluoromethyl-pyridin-2-yl)-12H-7-oxa-4,5,12-triaza-benzo[a]anthracene (cis)], for which the IC50 was at most 1000 nM. Take `CCCN(CCC)Cc1nc2nc(-c3ncccc3C(F)(F)F)ccc2c2c1Oc1cc(C(F)(F)F)ccc1N2` [Compound 9, Dipropyl-[9-trifluoromethyl-3-(3-trifluoromethyl-pyridin-2-yl)-12H-7-oxa-4,5,12-triaza-benzo[a]anthracen-6-ylmethyl]-amine]: the IC50 is at most 1000 nM. As to `Cc1nc2nc(-c3ncccc3C(F)(F)F)ccc2c2c1Oc1cc(C(F)(F)F)ccc1N2` [Compound 10, 6-Methyl-9-trifluoromethyl-3-(3-trifluoromethyl-pyridin-2-yl)-12H-7-oxa-4,5,12-triaza-benzo[a]anthracene], the IC50 was at most 1000 nM. Still for that read-out and setting: for `FC(F)(F)c1ccc2c(c1)Oc1cnc3nc(-c4ncccc4C(F)(F)F)ccc3c1N2` [Compound 11, 9-Trifluoromethyl-3-(3-trifluoromethyl-pyridin-2-yl)-12H-7-oxa-4,5,12-triaza-benzo[a]anthracene] the value was at most 1000 nM; for `CC(C)COCc1nc2nc(-c3ncccc3C(F)(F)F)ccc2c2c1Oc1cc(C(F)(F)F)ccc1N2` [Compound 12, 6-Isobutoxymethyl-9-trifluoromethyl-3-(3-trifluoromethyl-pyridin-2-yl)-12H-7-oxa-4,5,12-triaza-benzo[a]anthracene], at most 1000 nM; for `COCc1nc2nc(-c3ncccc3C(F)(F)F)ccc2c2c1Oc1cc(F)ccc1N2` [Compound 13, 9-Fluoro-6-methoxymethyl-3-(3-trifluoromethyl-pyridin-2-yl)-12H-7-oxa-4,5,12-triaza-benzo[a]anthracene], at most 1000 nM.

Take `Cc1nc2cc(-c3ncccc3C(F)(F)F)ccc2c2c1Oc1ccccc1N2` [Compound 14, 6-Methyl-3-(3-trifluoromethyl-pyridin-2-yl)-12H-7-oxa-5,12-diaza-benzo[a]anthracene]: the IC50 was at most 1000 nM.

As for `COCc1nc2nc(-c3ncccc3C(F)(F)F)ccc2c2[nH]c3ccc(Cl)cc3c(=O)c12` [Compound 15, 9-Chloro-6-methoxymethyl-3-(3-trifluoromethyl-pyridin-2-yl)-12H-4,5,12-triaza-benzo[a]anthracen-7-one], the IC50 was at most 1000 nM. The same measure, in the same setting: with `COCc1nc2nc(-c3ncccc3C(F)(F)F)ccc2c2[nH]c3ccc(Br)cc3c(=O)c12` [Compound 16, 9-Bromo-6-methoxymethyl-3-(3-trifluoromethyl-pyridin-2-yl)-12H-4,5,12-triaza-benzo[a]anthracen-7-one] the figure was at most 1000 nM; with `COCc1nc2nc(-c3ncccc3C(F)(F)F)ccc2c2c1C(O)c1cc(Br)ccc1N2` (centres unmarked) [Compound 17, 9-Bromo-6-methoxymethyl-3-(3-trifluoromethyl-pyridin-2-yl)-7,12-dihydro-4,5,12-triaza-benzo[a]anthracen-7-ol], at most 1000 nM.

A further test concerns the target VR (Homo sapiens, UniProt Q8NER1).
Assay: not given
To be noted: binds to VR with no more than moderate affinity; typical value; cited from earlier work.
Regarding `Cl.Cl.Cl.Cl.Cl.Cl.N.N.N.N.N.N.N.N.N.N.N.N.N.N.[O-2].[O-2].[Ru+3].[Ru+3].[Ru+4]` [ruthenium red], the Ki was at least 140000 nM.
